“Also recorded” adds a separate entry of the source.
Assay: DPPH radical scavenging activity assay
Format: biochemical
Conditions: for Scavenging Activity (%) (n = 3): DPPH in methanol, 30 min, 517 nm
From the text: DPPH Radical Scavenging Activity Assay
2,2-Diphenyl-1-picryl hydrazyl (DPPH) is an organic compound composed of a stable organic radical. In the DPPH molecule, due to the presence of multiple electron-withdrawing —NO2 and large it bonds of the benzene ring, nitrogen free radical is stabilized. Its methanol solution is purple and has a maximum absorption peak at 517 nm. After the addition of an antioxidant, DPPH captures an electron to be paired with the free electron, and the purple fades and turns into a yellow substance. The absorption at 517 nm disappears, and the degree of fading is quantitatively related to the number of electrons it captures. Based on this principle, a spectrophotometer is used to detect the change of the absorbance of the DPPH radical and the sample solution, and the ability of the sample to provide hydrogen atoms and scavenge free radicals can be measured.
(a) Preparation of DPPH solution:measuring exact amount of 2,2-diphenyl-1-picryl hydrazyl (DPPH) and dissolving in methanol to prepare a 0.2×10^−4 mol/L DPPH solution, stored at 0° C. in dark.
(b) Preparation of sample solutions: Vc (vitamin C, positive control), hydroxytyrosol thiodipropionic acid ester, hydroxytyrosol (control), thiodipropionic acid (control), and a mixture of hydroxytyrosol and thiodipropionic acid (control) were dissolved in methanol and diluted in a concentration gradient.
Measuring the scavenging activity of the sample solutions: 2 mL of the sample solutions (table 1) at each concentration gradient was taken, 2 mL 0.2×10^−4 mol/L DPPH solution was added, the mixture was mixed and reacted at room temperature in dark for 30 minutes, and methanol was then added to adjust final volume. The absorbance Ai was measured at 517 nm. 2 mL control solution and 2 mL methanol were mixed, and the absorbance Aj was measured. 2 mL DPPH solution and 2 mL methanol were mixed, and the absorbance A0 was measured.
(d) The scavenging activity of the sample solution and control solutions is calculated according to the following calculation formula and shown in Table 3 and FIG. 3. Scavenging activity (%)=100×[1−(Ai−Aj)/A0]

[1] = sample concentration 1.648 μg/mL, room temperature, dark
[2] = sample concentration 8.242 μg/mL
[3] = sample concentration 16.484 μg/mL
[4] = sample concentration 37.969 μg/mL
[5] = sample concentration 65.938 μg/mL
[6] = sample concentration 131.875 μg/mL
[7] = sample concentration 263.750 μg/mL
[8] = sample concentration 527.500 μg/mL
[9] = sample concentration 1055.000 μg/mL

For O=C(CCSCCC(=O)OCCc1ccc(O)c(O)c1)OCCc1ccc(O)c(O)c1 [A, bis(3,4-dihydroxyphenethyl) 3,3′-thiodipropanoate], which “DPPH radical scavenging activity (result in words, comparison with controls)” value (1.648 to 1055 μg/mL, compared at same concentration) is on record?
The value was “obvious DPPH radical scavenging activity in a concentration dependent manner; also recorded: better DPPH radical scavenging activity than hydroxytyrosol (B), thiodipropionic acid (C), and a 2:1 physical mixture of hydroxytyrosol and thiodipropionic acid (D) at same concentration”.

What about the “Scavenging Activity (%) (n = 3)” value [1] of the same compound?
The value was 32.44%.

And the “Scavenging Activity (%) (n = 3)” value [2]?
Its value is 42.37%.

And the “Scavenging Activity (%) (n = 3)” value [3]?
Its value is 52.29%.

What about the “Scavenging Activity (%) (n = 3)” value [4] of the same compound?
Its value is 66.79%.

And the “Scavenging Activity (%) (n = 3)” value [5]?
Its value is 79.39%.

What about the “Scavenging Activity (%) (n = 3)” value [6] of the same compound?
The value was 90.01%.

And the “Scavenging Activity (%) (n = 3)” value [7]?
The value was 96.95%.

And the “Scavenging Activity (%) (n = 3)” value [8]?
Its value is 97.71%.

What about the “Scavenging Activity (%) (n = 3)” value [9] of the same compound?
Its value is 98.09%.

Which “Scavenging Activity (%) (n = 3)” value [1] does the source give for OCCc1ccc(O)c(O)c1 [B, 4-(2-hydroxyethyl)-1,2-benzenediol] here?
Its value is 8.44%.

And the “Scavenging Activity (%) (n = 3)” value [2]?
Its value is 10.97%.

And the “Scavenging Activity (%) (n = 3)” value [3]?
Its value is 22.78%.

And the “Scavenging Activity (%) (n = 3)” value [4]?
The value was 29.96%.

And the “Scavenging Activity (%) (n = 3)” value [5]?
Its value is 43.04%.

What about the “Scavenging Activity (%) (n = 3)” value [6] of the same compound?
Its value is 62.87%.

What about the “Scavenging Activity (%) (n = 3)” value [7] of the same compound?
Its value is 73.00%.

What about the “Scavenging Activity (%) (n = 3)” value [8] of the same compound?
The value was 75.11%.

And the “Scavenging Activity (%) (n = 3)” value [9]?
The value was 75.95%.

For O=C1O[C@H]([C@@H](O)CO)C(O)=C1O [Vc, Vitamin C], which “Scavenging Activity (%) (n = 3)” value [1] is on record?
Its value is 34.01%.

And the “Scavenging Activity (%) (n = 3)” value [2]?
Its value is 37.06%.

What about the “Scavenging Activity (%) (n = 3)” value [3] of the same compound?
The value was 44.67%.

And the “Scavenging Activity (%) (n = 3)” value [4]?
The value was 67.51%.

What about the “Scavenging Activity (%) (n = 3)” value [5] of the same compound?
Its value is 95.43%.

What about the “Scavenging Activity (%) (n = 3)” value [6] of the same compound?
The value was 97.46%.

And the “Scavenging Activity (%) (n = 3)” value [7]?
The value was 98.98%.

What about the “Scavenging Activity (%) (n = 3)” value [8] of the same compound?
The value was 99.49%.

What about the “Scavenging Activity (%) (n = 3)” value [9] of the same compound?
The value was 99.49%.

Which “Scavenging Activity (%) (n = 3)” value [1] does the source give for O=C(O)CCSCCC(=O)O [C, 3,3′-thiodipropionic acid] here?
Its value is 3.24%.

What about the “Scavenging Activity (%) (n = 3)” value [2] of the same compound?
The value was 4.86%.

And the “Scavenging Activity (%) (n = 3)” value [3]?
The value was 9.72%.

And the “Scavenging Activity (%) (n = 3)” value [4]?
The value was 16.19%.

And the “Scavenging Activity (%) (n = 3)” value [5]?
The value was 20.65%.

What about the “Scavenging Activity (%) (n = 3)” value [6] of the same compound?
Its value is 27.13%.

And the “Scavenging Activity (%) (n = 3)” value [7]?
Its value is 31.58%.

What about the “Scavenging Activity (%) (n = 3)” value [8] of the same compound?
The value was 32.39%.

And the “Scavenging Activity (%) (n = 3)” value [9]?
The value was 38.06%.

Source: patent US10343988B1, “Hydroxytyrosol thiodipropionic acid ester with antioxidant activity and a method of preparing the same” (SHAANXI UNIVERSITY OF SCIENCE AND TECHNOLOGY, priority 2019, dated 2019)
